One assay addresses T1, CHEK1 (Homo sapiens, UniProt O14757).
T1 construct: purchased Eurofins DiscoverX Corporation
Nature of the assay: DiscoverX scanMAX competition binding assay. As to conditions: read-out: % inhibition at 1 μM.

A further assay addresses T2, MYLK3/caMLCK (Homo sapiens, UniProt Q32MK0).
T2 construct: purchased Eurofins DiscoverX Corporation
Nature of the assay: DiscoverX scanMAX competition binding assay. The source says:
(§1) Based on its narrow profile when tested in the combined Nanosyn and TSA panels, GW296115 was included in the recently released Kinase Chemogenomic Set (KCGS)[15]. All of the data presented in the Introduction section was collected prior to the inclusion of GW296115 in KCGS and everything that follows has been subsequently generated. Since its inclusion in PKIS and more recently KCGS, we have carried out a broader round of screening at DiscoverX. This profiling data has not been previously released and is reported here for the first time. GW296115 was profiled against 403 wild type human kinases at 1 μM using the DiscoverX scanMAX screening platform, which employs an active site-directed competition binding assay to quantitatively measure interactions between test compounds and kinases, [16]. GW296115 inhibited 25 kinases > 90% at 1 μM, resulting in a selectivity index (S10) of 0.062 at 1 μM (Table S2, Fig. 1C)[17].
(§2) The scanMAX assays were performed at Eurofins DiscoverX Corporation as previously described.

The target of another assay is T3, RIOK3 (Homo sapiens, UniProt O14730).
T3 construct: purchased Eurofins DiscoverX (scanMAX) / Eurofins enzymatic assays
T3 sequence (O14730 whole entry): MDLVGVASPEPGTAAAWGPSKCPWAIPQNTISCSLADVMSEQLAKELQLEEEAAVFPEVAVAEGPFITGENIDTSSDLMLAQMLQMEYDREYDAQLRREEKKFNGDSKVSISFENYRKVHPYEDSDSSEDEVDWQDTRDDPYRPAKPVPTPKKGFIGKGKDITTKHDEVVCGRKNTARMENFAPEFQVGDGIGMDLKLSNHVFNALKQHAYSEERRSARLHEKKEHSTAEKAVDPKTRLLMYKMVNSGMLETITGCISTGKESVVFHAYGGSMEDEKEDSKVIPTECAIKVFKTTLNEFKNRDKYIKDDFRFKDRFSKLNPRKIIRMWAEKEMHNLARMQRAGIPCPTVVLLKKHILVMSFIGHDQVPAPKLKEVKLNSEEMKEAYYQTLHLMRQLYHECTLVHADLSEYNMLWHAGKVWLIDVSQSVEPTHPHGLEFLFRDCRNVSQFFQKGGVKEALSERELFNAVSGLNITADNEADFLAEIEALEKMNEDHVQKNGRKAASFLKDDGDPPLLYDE
Nature of the assay: DiscoverX scanMAX competition binding assay.
Description: as §1, §2

Another assay concerns the target T4, MAP3K19 (Homo sapiens, UniProt Q56UN5).
T4 construct: purchased Eurofins DiscoverX (scanMAX) / Eurofins enzymatic assays
Nature of the assay: DiscoverX scanMAX competition binding assay.
Description: as §1, §2

Another assay deals with T5, EPHB6 (Homo sapiens, UniProt O15197).
T5 construct: purchased Eurofins DiscoverX Corporation
T5 sequence (O15197 32-1021): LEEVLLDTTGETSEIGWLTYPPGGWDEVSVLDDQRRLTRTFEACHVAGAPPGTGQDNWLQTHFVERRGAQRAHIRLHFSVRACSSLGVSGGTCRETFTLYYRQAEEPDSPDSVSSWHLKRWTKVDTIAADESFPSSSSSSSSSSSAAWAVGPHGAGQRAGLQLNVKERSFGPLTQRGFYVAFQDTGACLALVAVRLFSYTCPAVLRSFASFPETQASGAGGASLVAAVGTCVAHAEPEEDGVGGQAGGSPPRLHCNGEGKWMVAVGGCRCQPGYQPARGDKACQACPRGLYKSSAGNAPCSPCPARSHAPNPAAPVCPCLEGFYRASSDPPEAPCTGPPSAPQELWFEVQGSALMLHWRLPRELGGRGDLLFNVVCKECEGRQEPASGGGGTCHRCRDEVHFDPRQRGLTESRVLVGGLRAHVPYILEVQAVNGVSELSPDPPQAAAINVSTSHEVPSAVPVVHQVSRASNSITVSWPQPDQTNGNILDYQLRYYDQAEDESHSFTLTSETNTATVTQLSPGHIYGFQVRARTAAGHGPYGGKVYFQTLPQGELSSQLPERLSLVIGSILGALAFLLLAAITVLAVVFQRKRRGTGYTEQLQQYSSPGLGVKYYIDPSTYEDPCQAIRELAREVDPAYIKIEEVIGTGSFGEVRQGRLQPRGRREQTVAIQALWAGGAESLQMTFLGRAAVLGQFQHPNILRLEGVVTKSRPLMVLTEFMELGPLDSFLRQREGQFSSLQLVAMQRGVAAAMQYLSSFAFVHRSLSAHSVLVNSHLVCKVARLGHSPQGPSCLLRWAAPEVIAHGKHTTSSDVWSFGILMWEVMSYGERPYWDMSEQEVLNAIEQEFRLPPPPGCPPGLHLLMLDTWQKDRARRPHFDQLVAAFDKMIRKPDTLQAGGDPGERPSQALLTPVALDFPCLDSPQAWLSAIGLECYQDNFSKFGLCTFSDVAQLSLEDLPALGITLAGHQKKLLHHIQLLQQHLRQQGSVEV
The assay is described as follows: DiscoverX scanMAX competition binding assay.
Description: as §1, §2

A further assay deals with T6, GAK (Homo sapiens, UniProt O14976).
T6 construct: purchased Eurofins DiscoverX (scanMAX) / Eurofins enzymatic assays
T6 sequence (O14976 whole entry): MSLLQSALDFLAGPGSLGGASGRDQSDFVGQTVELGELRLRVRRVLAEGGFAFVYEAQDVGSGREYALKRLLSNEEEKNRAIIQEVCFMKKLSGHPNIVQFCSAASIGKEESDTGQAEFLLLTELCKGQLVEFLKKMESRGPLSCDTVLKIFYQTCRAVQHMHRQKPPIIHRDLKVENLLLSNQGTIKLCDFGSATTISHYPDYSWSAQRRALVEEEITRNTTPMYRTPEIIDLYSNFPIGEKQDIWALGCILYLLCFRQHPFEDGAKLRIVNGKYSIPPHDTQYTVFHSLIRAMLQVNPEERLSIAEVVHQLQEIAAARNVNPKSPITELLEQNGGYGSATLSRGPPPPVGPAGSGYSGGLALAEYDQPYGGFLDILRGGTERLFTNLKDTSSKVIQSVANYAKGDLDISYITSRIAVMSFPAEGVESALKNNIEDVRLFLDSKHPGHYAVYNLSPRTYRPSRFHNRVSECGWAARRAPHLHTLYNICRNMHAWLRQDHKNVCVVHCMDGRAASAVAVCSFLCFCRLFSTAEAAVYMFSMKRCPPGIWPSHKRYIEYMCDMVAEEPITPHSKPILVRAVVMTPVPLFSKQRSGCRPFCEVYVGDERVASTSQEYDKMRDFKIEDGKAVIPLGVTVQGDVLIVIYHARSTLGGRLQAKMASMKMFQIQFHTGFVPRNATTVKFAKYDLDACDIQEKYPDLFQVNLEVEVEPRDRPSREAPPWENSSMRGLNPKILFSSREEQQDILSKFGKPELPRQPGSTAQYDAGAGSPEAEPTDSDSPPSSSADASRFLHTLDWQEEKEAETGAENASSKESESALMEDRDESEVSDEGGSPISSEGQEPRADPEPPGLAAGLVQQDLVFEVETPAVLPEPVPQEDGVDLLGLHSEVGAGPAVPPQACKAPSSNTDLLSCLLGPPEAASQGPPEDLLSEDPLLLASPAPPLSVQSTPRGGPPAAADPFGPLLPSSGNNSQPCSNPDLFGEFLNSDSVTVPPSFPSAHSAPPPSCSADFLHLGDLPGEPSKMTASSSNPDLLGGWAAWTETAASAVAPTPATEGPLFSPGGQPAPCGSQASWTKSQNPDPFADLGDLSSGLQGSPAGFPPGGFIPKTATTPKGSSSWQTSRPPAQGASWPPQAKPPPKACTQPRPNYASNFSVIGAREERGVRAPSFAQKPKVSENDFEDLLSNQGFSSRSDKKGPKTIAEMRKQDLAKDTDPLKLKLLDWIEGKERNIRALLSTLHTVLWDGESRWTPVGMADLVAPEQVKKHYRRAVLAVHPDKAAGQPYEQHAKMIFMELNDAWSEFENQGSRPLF
The assay is described as follows: DiscoverX scanMAX competition binding assay.
Description: as §1, §2

For a further assay, the target named is T7, MAP2K5 (Homo sapiens, UniProt Q13163).
T7 construct: purchased Eurofins DiscoverX (scanMAX) / Eurofins enzymatic assays
T7 sequence (Q13163 whole entry): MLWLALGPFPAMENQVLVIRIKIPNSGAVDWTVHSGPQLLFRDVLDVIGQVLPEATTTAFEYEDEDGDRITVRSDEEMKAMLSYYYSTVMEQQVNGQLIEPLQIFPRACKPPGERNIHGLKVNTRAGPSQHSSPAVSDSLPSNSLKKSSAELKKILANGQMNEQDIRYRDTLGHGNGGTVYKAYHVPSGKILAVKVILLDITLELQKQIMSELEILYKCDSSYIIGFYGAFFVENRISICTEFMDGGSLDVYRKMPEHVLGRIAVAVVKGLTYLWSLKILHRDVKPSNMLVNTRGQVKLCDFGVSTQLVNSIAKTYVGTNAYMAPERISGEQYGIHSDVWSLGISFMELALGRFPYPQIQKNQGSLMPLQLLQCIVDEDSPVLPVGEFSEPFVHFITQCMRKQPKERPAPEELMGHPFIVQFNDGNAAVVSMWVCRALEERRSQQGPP
Nature of the assay: DiscoverX scanMAX competition binding assay.
Description: as §1, §2

The target of assay [1] is T8, NLuc-BRSK2 in HEK293 cells (Homo sapiens, UniProt Q8IWQ3).
T8 construct: host or cells: HEK293
T8 sequence (Q8IWQ3 1-736): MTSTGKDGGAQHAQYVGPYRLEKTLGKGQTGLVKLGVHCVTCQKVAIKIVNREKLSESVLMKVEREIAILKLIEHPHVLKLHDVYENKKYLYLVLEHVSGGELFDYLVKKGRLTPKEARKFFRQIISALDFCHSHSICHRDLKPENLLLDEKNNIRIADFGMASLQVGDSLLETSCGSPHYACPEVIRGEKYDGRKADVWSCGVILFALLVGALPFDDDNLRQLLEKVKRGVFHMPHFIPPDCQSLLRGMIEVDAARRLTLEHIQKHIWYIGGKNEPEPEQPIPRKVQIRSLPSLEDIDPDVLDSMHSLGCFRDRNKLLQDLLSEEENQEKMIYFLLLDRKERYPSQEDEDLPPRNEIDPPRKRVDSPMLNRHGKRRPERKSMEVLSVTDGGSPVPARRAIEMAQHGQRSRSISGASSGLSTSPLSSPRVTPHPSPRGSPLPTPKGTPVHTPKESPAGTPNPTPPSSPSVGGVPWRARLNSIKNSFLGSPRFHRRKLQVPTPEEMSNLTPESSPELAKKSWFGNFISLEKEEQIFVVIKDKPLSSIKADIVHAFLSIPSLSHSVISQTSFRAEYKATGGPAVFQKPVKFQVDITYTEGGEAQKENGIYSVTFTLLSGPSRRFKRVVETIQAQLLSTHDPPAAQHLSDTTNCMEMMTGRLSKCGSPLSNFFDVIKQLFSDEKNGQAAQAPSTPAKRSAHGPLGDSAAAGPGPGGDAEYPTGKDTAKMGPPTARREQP
The assay is described as follows: BRSK2 NanoBRET cellular target engagement assay. Particulars: HEK293 cells transiently expressing NLuc-BRSK2; Tracer K5 1 μM; N = 3; read-out: BRSK2 NanoBRET data IC50. It is filed as cell-based. The method, then:
Our interest in illuminating BRSK2 biology motivated further investigation of the cellular target engagement of BRSK2 by GW296115 using our NanoBRET assay. BRSK2 kinase was fused to 19-kDa luciferase (NLuc) at its N-terminus (NLuc–BRSK2) which was transiently expressed in HEK293 cells, and then incubated with a cell-permeable fluorescent energy transfer probe (tracer)[23].
NanoBRET assays were executed as described previously. Constructs for BRSK2 NanoBRET measurements were provided in kind by Promega. The N-terminal Nanoluciferase (NL)/BRSK2 fusion (NL-BRSK2) was encoded in pFN32K expression vector, including flexible Gly-Ser-Ser-Gly linkers between NL and BRSK2 (Promega). For cellular BRSK2 NanoBRET target engagement experiments, a 10 μg/mL solution of DNA in Opti-MEM without serum (Gibco) was prepared with 9 μg/mL of Carrier DNA (Promega) and 1 μg/mL of NL-BRSK2 to achieve a total volume of 1.05 mL. To this solution was then added 31.5 μL of FuGENE HD (Promega) to form a lipid:DNA complex, mixed by inversion 8 times, and incubated at room temperature for 20 min. The resulting transfection complex (1.082 mL) was next gently mixed with HEK293 cells (21 mL) suspended at a density of 2 × 10^5 cells/mL in DMEM containing 10% FBS.
After 24 h, media was removed via aspiration and 85 μL of room temperature Opti-MEM without phenol red (Gibco) was added to each well. […] Next, 5 μL (20 × working stock of NanoBRET Tracer K5 [20 μM] in Tracer Dilution Buffer (Promega N291B)) was added to each well with the exception of the “no tracer” control wells. Test compounds were prepared as concentrated stock solutions in 100% DMSO (Sigma) at a concentration of 10 mM. […] A volume of 10 μL of tenfold test compound stock solutions (final assay concentration of […]) was added to each well. For “no compound” and “no tracer” control wells, 10 μL of Opti-MEM plus DMSO (9 μL Opti-MEM plus 1 μL DMSO) was added to each well to achieve a final concentration of 1% DMSO.
After 2 h, plates were returned to room temperature over the course of 15 min. […] Next, 50 μL of the 3 × substrate/extracellular NL inhibitor stock was added to each well.
Test compounds were evaluated at 8 concentrations in competition with NanoBRET Tracer K5 in HEK293 cells transiently expressing the NL-BRSK2 fusion protein. Raw milliBRET (mBRET) values were obtained by dividing the acceptor emission values (600 nm) by the donor emission values (450 nm), and then multiplying by 1000. Averaged control values were used to represent complete inhibition (no tracer control: transfected cells in Opti-MEM + DMSO; tracer control: transfected cells in Opti-MEM + DMSO + Tracer K5 only), and were plotted alongside the raw mBRET values. The data with n = 3 biological replicates was first normalized and then fit using Sigmoidal, 4PL binding curve in Prism Software (version 8, GraphPad, La Jolla, CA, USA).

T4 sequence (Q56UN5 whole entry): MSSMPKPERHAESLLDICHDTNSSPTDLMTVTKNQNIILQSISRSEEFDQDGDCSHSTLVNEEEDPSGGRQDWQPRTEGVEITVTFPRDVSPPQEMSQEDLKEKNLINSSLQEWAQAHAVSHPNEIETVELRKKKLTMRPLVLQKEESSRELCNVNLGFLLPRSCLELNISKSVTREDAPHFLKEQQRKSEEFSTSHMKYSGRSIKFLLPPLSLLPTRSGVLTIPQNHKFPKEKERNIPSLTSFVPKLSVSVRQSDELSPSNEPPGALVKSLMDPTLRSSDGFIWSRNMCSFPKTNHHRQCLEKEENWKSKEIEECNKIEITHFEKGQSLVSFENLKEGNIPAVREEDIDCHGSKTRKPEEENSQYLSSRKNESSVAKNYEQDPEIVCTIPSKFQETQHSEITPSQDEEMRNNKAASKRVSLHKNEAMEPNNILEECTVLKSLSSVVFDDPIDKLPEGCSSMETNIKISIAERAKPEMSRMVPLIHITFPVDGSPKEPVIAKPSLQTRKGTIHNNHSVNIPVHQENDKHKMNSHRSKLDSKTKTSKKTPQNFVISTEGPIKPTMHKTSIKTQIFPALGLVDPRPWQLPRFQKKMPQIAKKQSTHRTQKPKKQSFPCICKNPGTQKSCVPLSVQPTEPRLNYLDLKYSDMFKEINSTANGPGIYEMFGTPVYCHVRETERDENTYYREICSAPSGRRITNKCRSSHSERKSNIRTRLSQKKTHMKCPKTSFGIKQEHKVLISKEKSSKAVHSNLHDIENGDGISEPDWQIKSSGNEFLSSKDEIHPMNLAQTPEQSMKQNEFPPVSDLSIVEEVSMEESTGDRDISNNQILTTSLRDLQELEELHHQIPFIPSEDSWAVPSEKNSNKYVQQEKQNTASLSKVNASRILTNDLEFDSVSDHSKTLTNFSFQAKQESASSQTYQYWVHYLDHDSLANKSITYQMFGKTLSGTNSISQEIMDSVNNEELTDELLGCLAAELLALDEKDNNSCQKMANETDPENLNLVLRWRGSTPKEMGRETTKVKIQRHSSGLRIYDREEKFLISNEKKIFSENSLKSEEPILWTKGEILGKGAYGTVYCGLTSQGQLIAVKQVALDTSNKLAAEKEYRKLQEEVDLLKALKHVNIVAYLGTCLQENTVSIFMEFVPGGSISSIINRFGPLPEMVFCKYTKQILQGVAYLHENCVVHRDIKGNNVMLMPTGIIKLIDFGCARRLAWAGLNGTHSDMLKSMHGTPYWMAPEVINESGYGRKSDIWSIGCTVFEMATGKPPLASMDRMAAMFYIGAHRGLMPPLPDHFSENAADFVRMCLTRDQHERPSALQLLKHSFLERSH
T1 sequence (O14757 whole entry): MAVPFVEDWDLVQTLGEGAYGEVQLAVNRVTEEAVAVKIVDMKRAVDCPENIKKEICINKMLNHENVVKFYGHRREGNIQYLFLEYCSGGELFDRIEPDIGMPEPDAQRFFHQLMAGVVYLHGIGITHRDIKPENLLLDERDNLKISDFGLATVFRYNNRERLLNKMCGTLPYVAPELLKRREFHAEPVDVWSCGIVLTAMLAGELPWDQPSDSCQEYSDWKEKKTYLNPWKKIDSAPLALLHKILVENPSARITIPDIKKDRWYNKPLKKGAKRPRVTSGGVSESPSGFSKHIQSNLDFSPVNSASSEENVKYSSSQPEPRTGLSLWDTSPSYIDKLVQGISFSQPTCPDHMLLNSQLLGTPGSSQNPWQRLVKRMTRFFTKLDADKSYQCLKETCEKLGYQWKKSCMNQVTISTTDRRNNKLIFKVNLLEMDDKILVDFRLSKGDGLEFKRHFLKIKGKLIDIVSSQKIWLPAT

As for `COc1ccc2[nH]c3c4[nH]c5ccc(OC)cc5c4c4c(c3c2c1)C(=O)NC4=O` [GW296115], the inhibition at 1 µM at CHEK1 was determined as 70%; at MYLK3/caMLCK it was 80%; on RIOK3, 89%; on MAP3K19 it was 100%; at EPHB6 it was 85%; at GAK, 96.7%. This molecule came in with an inhibition at 1 µM at MAP2K5 of 99.5%. In assay [1], the half-maximal inhibitory concentration (IC50) stood at 107 ± 28 nM.

As usually defined, the inhibition is the change of the read-out against control, counted positive when it falls. The term IC50 denotes the concentration needed to halve the response being measured.

Source of the values: article PMC7522982, “PKIS deep dive yields a chemical starting point for dark kinases and a cell active BRSK2 inhibitor” (Scientific Reports, 2020).
